Patent publication US7355074B2, “Compounds having aromatic rings and side-chain amide-functionality and a method for transporting monovalent anions across biological membranes using the same” (The University of Maryland, priority 2003, dated 2008)
Marks after values point to notes of the source that are not given here.

How the values were obtained:
[1] = pH-assisted fluorimetric transport assay with calixarene amides (HPTS-loaded liposomes); type: biochemical
Method: The ability of 1 and 2 to mediate ion flux across a lipid bilayer was studied fluorimetrically. A solution of 1 or 2 was added to a suspension of EYPC large unilamellar vesicles (LUVs) containing the pH-sensitive dye pyranine. An NaOH solution was added to the extravesicular buffer to create a gradient of approximately one pH unit. The resulting electrostatic potential, caused by proton efflux from the liposomes, can be compensated by cation influx or anion efflux, as mediated by the exogenous ligand. Ion transport across the membrane was signaled by the increase in relative fluorescence that accompanied the rise in intravesicular pH.
Liposome Preparation. EYPC HPTS-Containing LUVs, egg yolk 1-α-phosphatidylcholine (EYPC, 60 mg, […]) was dissolved in a CHCl3MeOH mixture, the solution was evaporated under reduced pressure, and the resulting thin film was dried under high vacuum for 2 h. The lipid film was hydrated in 1.2 mL of phosphate buffer (10 mM sodium phosphage, pH=6.4, 75-100 mM MX, M=Na^+, K^+, Cs^+, X=[…], SO4^2−) containing 10 μM HPTS (pyranine 8-hydroxypyrene-1,3,6-trisulfonic acid trisodium salt) for 2 h. The LUV suspension (1 mL) was submitted to high-pressure extrusion at room temperature (2) extrusions through a 0.1 μM polycarbonate membrane afforded LUVs with a diameter of 100 nm). The LUV suspension was separated from extravesicular dye by size exclusion chromatography (SEC) stationary phase: Sephadex G-10, mobile phase:phosphate buffer) and diluted with the same phosphate buffer to give a stock solution with a lipid concentration of 11 mM (assuming 100% of lipid was incorporated into liposomes).
Fluorimetric Transport Assays. pH-Assisted Transport Assays. Typically, 100 μL of HPTS-loaded vesicles (stock solution) was suspended in 1.85 mL of the corresponding buffer and placed into a fluorimetric cell. HPTS emission at 510 nm was monitored with excitation wavelengths at 403 and 460 nm simultaneously. During the experiment, 20 μL of a 0-10 mM THF solution of the compound of interest was added through an injection port, followed by injection of 21 μL of 0.5 M aqueous NaOH. Addition of the NaOH caused a pH increase of approximately 1 pH unit in the extravesicular buffer. Maximal changes in dye emission were obtained at the end of each experiment by lysis of the liposomes with detergent (40 μL of 5% aqueous Triton x100). The final transport trace was obtained as a ratio of the emission intensities monitored at 460 and 403 nm and normalized to 100% of transport.

[2] = 1H NMR binding experiment in CDCl3, HCl extraction
Method: FIG. 7 illustrates a series of […] spectra (400 mHz, CDCl3, 22° C.) of calixarene tetrabutylamide in the presence of different species: (A) the compound alone (5 mm); (B) the compound with 1 equiv. of Bu4 NCl; (C) the compound after washing CDCl3 solution of the compound with an aqueous solution of 0.5 m HCl; (D) after washing CDCl3 solution of the compound with an aqueous solution of 0.5 M H2SO4.
To obtain evidence for Cl^− binding by 2, ^1H NMR experiments were run in CDCl3 using n-Bu4-NCl and HCl as Cl^− sources. Anion receptors usually show chemical shift perturbation upon anion complexation, particularly for amide NH protons that hydrogen bond to the anion. […] Calix[4]arene tetrabutylamide 2 does, however, bind HCl. Thus, shaking a CDCl3 solution of 2 with aqueous HCl led to disappearance of the amide NH proton and a significant upfield shift of the […] protons (FIG. 4c).

[3] = pH-stat fluorescent transport assay with oligophenoxyacetamides (HPTS-loaded liposomes); type: biochemical; conditions: 100 mM NaCl inside and outside; 50 μm (10 mol % ligand to lipid ratio)
Method: FIGS. 1A and 1B are derived from of pH-stat fluorescent assays with oligophenoxyacetamide compounds 1-6 described herein. Suspensions of EYPC LUVs containing the pH sensitive dye pyranine (ex 405 nm and 460 nm em 510 nm) in a phosphate buffer were used (0.5 mM of lipid, 10 mM NanH3-nPO4 n=1, 2, pH 6.4 100 mM NaCl inside and outside) (A) illustrates initial pseudo-first order rate constants in the presence of 5 μm of ionophores 1-6 (1 mol % injection of 20 μl of 0.5 mM DMSO solution of 1-6 into 1.9 mL of vesicular suspension was followed by injection of 21 μl of 0.5 M NaOH and final lysis of liposomes with Triton X-100; (B) illustrates initial pseudo-first order rate constants assessed for various concentrations of oligomeric ionophores 2-6. The same experimental protocol as in (A) was used. Legend for traces denotes use of oligocompounds 2, 3, 4, 5, 6.
Liposome Preparation for Fluorimetric Assays. Egg yolk L-α-phosphatidylcholine (EYPC ethanol solution, […], 79 μmol) was dissolved in a CHCl3/MeOH mixture, the solution was evaporated under reduced pressure and the resulting thin film was dried under high vacuum for 2 h. The lipid film was hydrated in 1.2 mL of phosphate buffer (10 mM sodium phosphate, pH=6.4, 75-100 mM MnX, M=N^+, K^+, X=Cl^−, SO4^2−, n=1,2) containing 10 μM HPTS (pyranine, 8-hydroxypyrene-1,3,6-trisulfonic acid trisodium salt) for 40 min. During hydration, the suspension was submitted to 5 freeze-thaw cycle (liquid nitrogen, water at rt). The large multilamellar liposome suspension (1 mL) was submitted to high-pressure extrusion at rt (21 extrusions through a 0.1 μm polycarbonate membrane afforded a suspension of LUVs with an average diameter of 100 nm). The LUV suspension was separated from extravesicular dye by size exclusion chromatography (SEC) (stationary phase: Sephadex G-10, mobile phase: phosphate buffer) and diluted with the same phosphate buffer to give a stock solution with a lipid concentration of 11 mM (assuming 100% of lipid was incorporated into liposomes).
pH-state transport assays. Typically, 100 μL of HPTS-loaded vesicles (stock solution) was suspended in 1.9 mL of the corresponding buffer and placed into a fluorimetric cell. The emission of HPTS at 510 nm was monitored with excitation wavelengths at 403 and 460 nm simultaneously. During the experiment, 20 μL of a 0-10 mM DMSO solution of the compounds of interest was added (through an injection port), followed by injection of 21 μL of 0.5 M aqueous NaOH. […] Maximal possible changes in dye emission were obtained at the end of each experiment by lysis of the liposomes with detergent (40 μL of 5% aqueous Triton X100). The final transport trace was obtained as a ratio of the emission intensities monitored at 460 and 403 nm and normalized to 100% of transport. Pseudo-first order rate constants were calculated from slopes of the plot of In([H^+ins]−[H^+out]) versus time, here [H^+ins] and [H^+out] are the intravesicular and extravesicular proton concentrations, respectively. The [H^+out] was assumed to remain constant over the course of the experiment, while [H^+ins] values were calculated for each point from the HPTS emission intensities according to the calibration equation pH=1.1684·log(Io/Il)+6.9807, where Io is the emission intensity with excitation at 460 nm and Il is emission intensity with excitation at 403 nm. The calibration was performed by measuring the HPTS emission intensities and the pH values of a […] HPTS solution in 10 mM phosphate buffer containing 100 mM NaCl (see FIG. s3). The absolute values for rate constants varied depending on the age of the vesicular solution and the actual stock solution of liposomes used.

[4] = intravesicular pH of LUVs experiencing a Cl- gradient (calixarene amides); type: biochemical; conditions: NaCl-loaded LUVs in isosmotic Na2SO4 buffer
Method: FIG. 8 illustrates changes in intravesicular pH upon addition of calixarene tetrabutylamide and calixarene octabutylamide to NaCl^+ loaded vesicles suspended in a sulfate phosphate buffer (emission of HPTS is used to monitor the pH changes in LUVs). At t=60 s, 20 μL of 500 μM of calixarene tetrabutylamide 2 (top trace) or the octabutylamide 3 (bottom trace) was added to 1.95 mL of a LUV suspension to give 1:100 ligand:lipid molar ratio. At t=500 s, 40 μL of 5% Triton X-100 was added. Intravesicular pH values were obtained as a function of the ratio of HPTS emission intensities at 510 nm, when excited at […]. The calibration was performed by measuring the HPTS emission intensities and the pH values of a […] HPTS solution in 10 mM phosphate buffer containing 100 mM NaCl. The calibration equation obtained (pH=1.1684×log (I0I1)+6.9807, r=0.998, where I0 is the emission intensity with excitation at […]) was used to convert the emission intensities into actual pH values.
The pH reached its maximum 250 s after addition of 2 and held constant until the liposomes were lysed with detergent. […] In effect, compound 2 moves […] along with Cl^− down the chloride gradient, consequently building a pH gradient across the membrane. Therefore, NaCl filled vesicles lose Cl^− and H^+ upon addition of 2 and become more alkaline.
Calcein-Release Assay. Calcein-loaded vesicles (100 μL of the stock solution), filled with a saline phosphate buffer (10 mM sodium phosphate, pH 6.4, […] NaCl), were suspended in 1.85 mL of an isoosmotic phosphate sulfate buffer (10 mM sodium phosphate, pH 6.4^−75 mM (Na2SO4) and placed into a fluorimetric cell. HPTS emission at 510 nm was monitored with excitation wavelengths at 403 and 460 nm simultaneously. During the experiment, 20 μL of a 0-500 μM THF solution of the compound of interest was added through an injection port. Intravesicular pH values were obtained as a function of the ratio of HPTS emission intensities at 510 nm, when excited at 403 and 460 nm. […]

HCl binding [2] | Structure (SMILES) | ion transport ([1]; 50 μM) | transport activity [3] | change of intravesicular pH / pH gradient formation [4] | drop in rate constant on changing extravesicular electrolyte from NaCl to CsCl [1] [fold] | transport activity when buffer changed from NaCl to Na2SO4 [1] | Initial Pseudo-first Order Transport Rate Constants, Na2SO4 ([1]; 5 μM, 100 mM Na2SO4 inside pH 6.4 and outside pH 7.4, not corrected for unmediated exchange) | Initial Pseudo-first Order Transport Rate Constants, CsCl ([1]; 5 μM, 100 mM NaCl inside pH 6.4, 100 mM CsCl outside pH 7.4, not corrected for unmediated exchange) | Initial Pseudo-first Order Transport Rate Constants, KCl ([1]; 5 μM, 100 mM NaCl inside pH 6.4, 100 mM KCl outside pH 7.4, not corrected for unmediated exchange) | Initial Pseudo-first Order Transport Rate Constants, NaCl ([1]; 5 μM, 100 mM NaCl inside pH 6.4, 100 mM NaCl outside pH 7.4, not corrected for unmediated exchange) | rate constant k of ion transport ([1]; Na2SO4 loaded vesicles in isotonic buffer) [s⁻¹] | rate constant k of ion transport ([1]; NaCl buffer) [s⁻¹] | cation selectivity of ion transport ([1]; buffers containing Na, K or Cs)
no HCl binding | CCCCNC(=O)COc1ccccc1 [Monomer 1, N-butyl-2-phenoxyacetamide] | no ion transport | some activity | – | – | – | – | – | – | – | – | – | –
– | CCCCN(CCCC)C(=O)COc1c2cccc1Cc1cccc(c1OCC(=O)N(CCCC)CCCC)Cc1cccc(c1OCC(=O)N(CCCC)CCCC)Cc1cccc(c1OCC(=O)N(CCCC)CCCC)C2 [calix[4]arene octabutylamide 3, Calix[4]arene Octabutylamide] | – | – | did not result in formation of a pH gradient | 3.5 | still mediated significant ion transport | 9.1^b,d ×10^−3 s^−1 | 5.4^b,c ×10^−3 s^−1 | 12^b,c ×10^−3 s^−1 | 19^b,c ×10^−3 s^−1 | 0.0091 | 0.019 | discriminates between monovalent cations
